Like-named read-outs stand apart in the source and are kept apart here.
Columns and labels:
[1] = In vitro metabolic half-life in rat whole blood; type: in vitro ADME; details: male, Sprague-Dawley Rat (n = 3), 37°C, read-out: Mean t1/2 Value
Protocol: (§1) Human whole blood stability experiments were conducted in whole blood from four human donors (male, 18–25 years). Single experiments were conducted with pooled blood from Sprague-Dawley rats (male, 8 weeks, n = 3), New Zealand White rabbits (male, 8–10 weeks, n = 3), Beagle dogs (male, 2–3 years, n = 3) and Cynomolgus monkeys (male, 3–4 years, n = 3). All the blood samples were provided by Xuzhou Medical College. A 1.35-ml aliquot of blood was warmed at 37°C for 5 min and hypnotic (from a 40 mM stock in DMSO solution) was added to a final concentration of 200 µM. After the specified incubation time, a 150-µl sample was removed and the metabolic reaction was quenched using 150-µl acetonitrile. Zero time-point samples were prepared by adding 150-µl acetonitrile (using a 4 mM stock in DMSO) to 150-µl blood before addition of the hypnotic. The quenched samples were centrifuged, and the supernatant was separated and stored at −20°C until analyzed. Hypnotic concentrations in thawed samples were determined by high-performance liquid chromatography using a 3-µm phenyl 4.6×50-mm C-A-25, ACE column with the UV detector set at 240 nm. […] The lower limit of quantitation of this assay is 3 µM and the accuracy within 15% at 10 µM. The metabolic half-lives were quantified from the incubation time-dependent change in drug concentration.

[2] = In vitro metabolic half-life in dog whole blood; type: in vitro ADME, Beagle dog; details: male; whole blood, Beagle dog (n = 3), 37°C, 200 µM; read-out: Mean t1/2 Value
Protocol: Human whole blood stability experiments were conducted in whole blood from four human donors (male, 18–25 years). Single experiments were conducted with pooled blood from Sprague-Dawley rats (male, 8 weeks, n = 3), New Zealand White rabbits (male, 8–10 weeks, n = 3), Beagle dogs (male, 2–3 years, n = 3) and Cynomolgus monkeys (male, 3–4 years, n = 3). All the blood samples were provided by Xuzhou Medical College. A 1.35-ml aliquot of blood was warmed at 37°C for 5 min and hypnotic (from a 40 mM stock in DMSO solution) was added to a final concentration of 200 µM. After the specified incubation time, a 150-µl sample was removed and the metabolic reaction was quenched using 150-µl acetonitrile. Zero time-point samples were prepared by adding 150-µl acetonitrile (using a 4 mM stock in DMSO) to 150-µl blood before addition of the hypnotic. The quenched samples were centrifuged, and the supernatant was separated and stored at −20°C until analyzed. Hypnotic concentrations in thawed samples were determined by high-performance liquid chromatography using a 3-µm phenyl 4.6×50-mm C-A-25, ACE column with the UV detector set at 240 nm. A linear gradient 20–45% acetonitrile in water with 0.05% trifluoroacetic acid was run for more than 20 min at a flow rate of 1 ml/min. The lower limit of quantitation of this assay is 3 µM and the accuracy within 15% at 10 µM. The metabolic half-lives were quantified from the incubation time-dependent change in drug concentration.

[3] = system: rabbits; experiment: Hypnosis in response to IV infusion in rabbits; type: in vivo, rabbit; details: for time to walk after infusion: 20-min IV infusion; for duration of LORR after cessation of infusion: 20-min IV infusion at half the HD50 per min after 2× HD50 induction
Protocol: Induction of hypnosis in rabbits was achieved using 2× HD50 dose of test compound, and immediately after induction, infusion via the tail vein was commenced at half the HD50 dosage per min. the infusion rate was maintained for 20 min or 1 h or 3 h later. The depth of hypnosis was monitored by the magnitude of a withdrawal reflex to intermittent paw pinch provided by a pair of forceps.

[4] = system: mice; experiment: animal or person; type: in vivo; details: for ED50: Mus musculus
Protocol: (§2) All tests were performed during the light period. Groups of mice, rats and rabbits were injected intravenously (lateral tail vein) over 10 s with each dose of test compound, placed in separate boxes to reduce external stimuli and assessed for the loss of righting reflex. Dosing was performed using mg/kg scheme. A set of dose levels was chosen, and depending on whether the loss of righting reflex was observed, extra doses were introduced to provide data for the loss of righting reflex over a narrow dose range to allow potency calculations. From the percentage of mice, rats and rabbits in each group showing loss of righting reflex for ≥30 s, a probit analysis (SAS Institute) was performed to obtain an HD50 for each compound with 95% confidence limits.
(§3) Immediately following the injection, the mice, rats and rabbits were tested for loss of righting reflex. […] Once a loss was observed, the interval between the loss of righting reflex and the return to righting reflex was recorded. The anesthetized animals recovered righting reflexes spontaneously. To compare the duration of LORR of each compound at equipotent doses, groups of mice, rats and rabbits were injected with each compound at 2× HD50 over 10 s.
(§4) Time to walk was the time required after righting before mice and rabbits walked from the center to the periphery of a 30-cm diameter dise.
(§5) The rotarod test was conducted to evaluate the recovery to the motor coordination. Before the LORR test, mice were trained for 2 consecutive days. Trained mice could maintain their balance on rod for more than 2 mins. After the mice could walk from the center to the periphery of a 30-cm diameter dise, they were put on the rotarod. Mice were classified as behavioral recovery when, on being placed on the rod, they could maintain their balance for 20 s. The time to behavioral recovery was the time required after mice walked from the centre to the periphery of a 30-cm diameter disc before they could maintain their balance on rod for 20 s.

[5] = system: mice; experiment: in vivo; details: LD50/HD50
Protocol: (§6) The LD50 was determined in mice, rats, and rabbits and the TI was calculated as LD50/HD50.

[6] = in vivo; details: mouse, in vivo; mice, 95% confidence limits
Protocol: as §6

[7] = system: GABAA receptor; experiment: GABAA radioligand binding assay ([3H]EBOB); details: 50 µM compound, 0.5 nM [3H]EBOB, rat frontoparietal cortex
Protocol: All the new compounds were dissolved in 5% DMSO.
Specific binding was determined in the presence of compounds.
Membrane suspensions were thawed and centrifuged in incubation buffer at 10,000×g for 10 min and washed by a similar centrifugation. For displacement studies, membrane suspensions (5 mg original wet wt./ml) were incubated with 0.5 nM [^3H]EBOB ([…], Perkin Elmer Life Sciences, Boston, MA, USA) in the absence or presence of 50 µM of new compounds or reference drug for 2 h at 25°C. Nonspecific binding was determined in the presence of 10 µM Bicuculline. Bicuculline and picrotoxin were frequently used to determine the nonspecific binding when [3H]EBOB as radioligand [17]. Triplicate 1 ml samples were filtered on Whatman GF/B filters under vacuum with a Brandel Harvester and washed with 3×3 ml ice-cold buffer.

[8] = In vitro metabolic half-life in monkey whole blood; type: in vitro ADME; details: male, Cynomolgus monkey (n = 3), 37°C, read-out: Mean t1/2 Value
Protocol: as §1

[9] = In vitro metabolic half-life in human whole blood; type: in vitro ADME; details: male, Human (n = 4), 37°C, read-out: Mean t1/2 Value
Protocol: as §1

[10] = system: rabbits; experiment: Hypnotic potency and recovery after IV bolus in rabbits; type: in vivo, rabbit; details: for Duration of LORR / Time to walk: 2× HD50 dose, mean ± SD; for HD50: IV, 95% confidence limits
Protocol: as §2, with “calculations.” for “calculations. From the percentage of mice, rats and rabbits in each group showing loss of righting reflex for ≥30 s, a probit analysis (SAS Institute) was performed to obtain an HD50 for each compound with 95% confidence limits.”
as §3, with “The anesthetized animals recovered righting reflexes spontaneously.” left out
as §4

[11] = system: rat; type: in vivo; details: for HD50: IV, 95% confidence limits
Protocol: as §2, §3, §4, §5

[12] = system: rat; experiment: Therapeutic index (LD50/HD50) in rat; type: in vivo
Protocol: as §6

[13] = Octanol:water partition coefficient; type: physicochemical; details: water buffered with 10 mm Tris (pH 7.4)
Protocol: One mg of each hypnotic was added to 10 ml of water buffered with 10 mm Tris (pH 7.4) and 1 ml of octanol. The mixture was stirred overnight and then centrifuged to fully separate the organic and aqueous phases. The relative hypnotic concentration in each phase (i.e., the partition coefficient) was determined by high-performance liquid chromatography as described for blood.

[14] = In vitro metabolic half-life in rabbit whole blood; type: in vitro ADME; details: male, New Zealand White rabbit (n = 3), 37°C, read-out: Mean t1/2 Value
Protocol: as §1

[15] = biological target: T1, human GABAA receptor α1, β2 and γ2 (CHO-K1 cells) (Homo sapiens, UniProt P14867+P18507+P47870); parameters: method as in PMID 22531340; details: GABAA receptor electrophysiology; cited from earlier work
T1 construct: expressed in transfected cells; host or cells: CHO-K1 cells, stably transfected

[16] = system: rabbits; experiment: Therapeutic index (LD50/HD50) in rabbits; type: in vivo, rabbit
Protocol: as §6

[17] = biological target: T1, human GABAA receptor α1, β2 and γ2 (CHO-K1 cells); experiment: cell-based
Protocol: Chinese hamster ovary (CHO)-K1 cells transfected stably with human GABAA receptor α1, β2 and γ2 subunit cDNAs were used. The cells were plated onto collagen-coated 35-mm cell culture dishes at low density for 1–7 days before recording. Test solutions were prepared in the extracellular solution on the day the patch-clamp assay was performed. The intracellular solution consisted of 22 mM KCl, 110 mM K-aspartate, 8 mM NaCl, 1 mM MgCl2, 1 mM CaCl2, 10 mM ethylene glycol tetraacetic acid, 5 mM Na2ATP, 10 mM hydroxyethyl piperazineethanesulfonic acid (HEPES) (adjusted to pH 7.2 using KOH), while the extracellular solution contained 145 mM NaCl, 4 mM KCl, 2 mM CaCl2, 2 mM MgCl2, 10 mM HEPES (adjusted to pH 7.4 using NaOH). The assay was performed at room temperature. Cells were maintained at −70 mV and the potentiation effect was assessed by co-application of the test compound with EC20 of muscimol after the cell was pre-incubated with the test compound for 45 s. GABA EC20 measured individually in each cell. The amplitude of the Cl− current in response to muscimol and/or test compound was determined. The response to the co-application of the test compound and muscimol was normalized to the control muscimol response as a percentage of the control. A potentiation effect was indicated by a value >100% of the control response. EC50 values were calculated using the four parameter logistic equation, where E was the amplitude of the muscimol-induced current in the presence of the anesthetic at concentration [A], EMAX was the amplitude of the response in the presence of a maximally effective concentration of the anesthetic, EC50 was the concentration of anesthetic producing a half-maximal enhancement of the muscimol-induced response and nH was the Hill coefficient. [drawing 1]

[18] = mice, IV over 10 s, 95% confidence limits, read-out: HD50 (the source's name)
[19] = mice, IV 2× HD50, mean ± SD (n = 10)

T1 sequence (P14867 28-456): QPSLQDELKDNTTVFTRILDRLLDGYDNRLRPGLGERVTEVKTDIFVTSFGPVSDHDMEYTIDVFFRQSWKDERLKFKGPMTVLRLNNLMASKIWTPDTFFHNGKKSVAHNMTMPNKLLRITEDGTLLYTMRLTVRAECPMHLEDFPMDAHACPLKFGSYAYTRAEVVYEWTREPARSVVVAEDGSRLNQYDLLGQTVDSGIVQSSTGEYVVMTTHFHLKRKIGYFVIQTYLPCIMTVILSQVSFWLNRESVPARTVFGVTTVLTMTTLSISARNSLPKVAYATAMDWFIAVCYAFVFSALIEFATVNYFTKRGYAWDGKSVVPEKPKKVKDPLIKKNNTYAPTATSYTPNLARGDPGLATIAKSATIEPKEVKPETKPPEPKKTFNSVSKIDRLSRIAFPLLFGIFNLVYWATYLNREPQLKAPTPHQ
T1 sequence (P47870 25-512 limits assumed): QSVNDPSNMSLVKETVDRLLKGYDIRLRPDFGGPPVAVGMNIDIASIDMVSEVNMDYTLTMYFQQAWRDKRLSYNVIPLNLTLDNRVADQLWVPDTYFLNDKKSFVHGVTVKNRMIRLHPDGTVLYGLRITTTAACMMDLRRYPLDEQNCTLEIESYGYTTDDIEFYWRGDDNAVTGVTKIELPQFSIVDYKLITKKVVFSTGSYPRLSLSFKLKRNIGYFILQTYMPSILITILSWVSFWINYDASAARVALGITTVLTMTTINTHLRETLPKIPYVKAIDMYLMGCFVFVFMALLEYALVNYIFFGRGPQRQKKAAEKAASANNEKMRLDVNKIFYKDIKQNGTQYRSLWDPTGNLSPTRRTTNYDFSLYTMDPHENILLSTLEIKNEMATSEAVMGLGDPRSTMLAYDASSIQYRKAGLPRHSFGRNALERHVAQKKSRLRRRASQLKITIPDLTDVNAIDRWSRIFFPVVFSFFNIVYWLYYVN
T1 sequence (P18507 40-475): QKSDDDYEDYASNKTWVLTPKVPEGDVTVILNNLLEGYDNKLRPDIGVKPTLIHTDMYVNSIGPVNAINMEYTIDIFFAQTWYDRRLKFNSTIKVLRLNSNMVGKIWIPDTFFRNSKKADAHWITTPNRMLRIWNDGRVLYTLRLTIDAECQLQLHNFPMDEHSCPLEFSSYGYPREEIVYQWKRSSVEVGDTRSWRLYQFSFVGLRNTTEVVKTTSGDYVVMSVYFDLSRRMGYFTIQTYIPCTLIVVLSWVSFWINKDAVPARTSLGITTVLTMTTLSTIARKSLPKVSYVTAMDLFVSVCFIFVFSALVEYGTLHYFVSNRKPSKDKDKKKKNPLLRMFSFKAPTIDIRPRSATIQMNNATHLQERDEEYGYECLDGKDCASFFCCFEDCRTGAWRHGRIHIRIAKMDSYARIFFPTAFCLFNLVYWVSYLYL

Structure (SMILES)	time to walk after infusion [3] [s]	duration of LORR after cessation of infusion [3] [s]	ED50 [4, 18] [mg/kg]	Time to walk ([4]; mice, 2× HD50) [s]	time to behavioral recovery ([4]; mice, 2× HD50, rotarod) [s]	Duration of LORR [4, 19] [s]	Onset time ([4]; mice, IV, mean ± SD (n = 10)) [s]	TI [5]	LD50 [6] [mg/kg]	GABAA binding (50 µmol) (Mean ± SD), percentage of inhibition [7] [%]	Duration of LORR [10] [s]	Time to walk [10] [s]	HD50 [10]	Duration of LORR ([11]; 2× HD50 dose, mean ± SD) [s]	Time to walk ([11]; 2× HD50 dose, mean ± SD) [s]	time to behavioral recovery ([11]; 2× HD50 dose, mean ± SD) [s]	HD50 [11]	TI [12]	Octanol:Water Partition (Coefficient ± SD) [13]	TI [16]	further results
CCCOC(=O)Cc1ccc(OCC(=O)N(CC)CC)c(OCC)c1 [AZD3043, reference compound]	46.3 ± 11.2	135.6 ± 66.7	17.6	36.7 ± 6.4	65.5 ± 14.1	63.8 ± 8.5	5.6 ± 1.2	6.0	98.4	83.2±7.4	221.6 ± 38.8	89.6 ± 7.6	4.8 (4.6∼5.6) mg/kg	74.2 ± 10.5	38.4 ± 9.6	56.9 ± 12.5	8.2 (7.7∼9.8) mg/kg	10.1	466±54	15.6	half-life at 200 µM [1]: 0.6 ± 0.1 min; half-life at 200 µM [2]: > 60 min; half-life at 200 µM [8]: 56.7 ± 11.9 min; half-life at 200 µM [9]: 28.6 ± 6.2 min; half-life at 200 µM [14]: 14.8 ± 3.3 min; EC50 [15]: 36 µM
CCCOC(=O)Cc1ccc(OCC(=O)N(CC)CC)c(OC)c1 [Propanidid]	70.2 ± 14.9	246.6 ± 65.7	20.9	56.3 ± 23.5	83.9 ± 17.1	89.6 ± 18.2	6.7 ± 0.5	5.6	119	70.2±5.8	265.4 ± 44.2	124.5 ± 24.8	5.1 (4.7∼5.7) mg/kg	93.3 ± 16.1	58.7 ± 18.8	79.9 ± 34.6	8.4 (7.8∼10.4) mg/kg	9.6	394±40	14.7	EC50 ([17]; GABAA (α1β2γ2) CHO-K1 cell, patch clamp, read-out: EC50, potentiation of EC20 muscimol evoked chloride currents): 25.2 µM
CC(C)c1cccc(C(C)C)c1O [Propofol]	167.9 ± 60.8	485.6 ± 164.1							64.4		326.6 ± 48.3	425.3 ± 162.3	3.2 (2.3∼4.2) mg/kg				5.2 (4.5∼5.7) mg/kg	5.9			ED50 ([4]; iv, read-out: HD50): 11.9 mg/kg; Time to walk ([4]; mouse, in vivo): 76.5 ± 42.5 s; time to behavioral recovery ([4]; mouse, in vivo): 242.7 ± 119.2 s; Duration of LORR ([4]; mouse, in vivo, iv): 240.9 ± 93.7 s; Onset time ([4]; mouse, in vivo, iv): 8.1 ± 1.6 s; Duration of LORR ([11]; in vivo): 349.3 ± 93.3 s; Time to walk ([11]; in vivo): 286.5 ± 86.5 s; time to behavioral recovery ([11]; in vivo): 335.8 ± 156.9 s; EC50 [17]: 2.4 µM
